± gives the expanded uncertainty stated by the source.
Conditions: 101.33 kPa, Liquid; for viscosity: Capillary tube (Ostwald / Ubbelohde) method; for mass density: Pycnometric method; for thermal conductivity: Hot wire method

CC(O)CO (stereo not drawn) [1,2-propanediol]
Conditions	mass density [kg/m3]	thermal conductivity [W/m/K]	viscosity [mPa·s]
297.25 K	–	–	46.4 ± 1
298.85 K	1033 ± 2	–	–
299.1 K	–	0.196 ± 0.004	–
302.55 K	–	–	34 ± 0.7
313.6 K	–	0.195 ± 0.004	–
317.1 K	–	–	16.4 ± 0.4
318.05 K	1018 ± 2	–	–
332.3 K	–	–	8.75 ± 0.18
332.9 K	–	0.195 ± 0.004	–
339 K	1003 ± 2	–	–
347.4 K	–	–	5.26 ± 0.11
352.3 K	–	0.194 ± 0.004	–
359.4 K	986.1 ± 2	–	–
362.05 K	–	–	3.42 ± 0.07
371.6 K	–	0.193 ± 0.004	–
376.45 K	–	–	2.34 ± 0.05
380.95 K	967.6 ± 2	–	–
391.05 K	–	–	1.67 ± 0.04
391.1 K	–	0.192 ± 0.004	–
399.6 K	951.2 ± 2	–	–
406.05 K	–	–	1.27 ± 0.03
411.4 K	–	0.19 ± 0.004	–
420.2 K	931.7 ± 1.9	–	–
420.85 K	–	–	0.982 ± 0.021
430.4 K	–	0.187 ± 0.004	–
440.35 K	912.2 ± 1.9	–	–
450.8 K	–	0.183 ± 0.004	–

CC(O)COC(C)COC(C)CO (stereo not drawn) [2-[2-(2-hydroxypropoxy)propoxy]-1-propanol]
Conditions	mass density [kg/m3]	thermal conductivity [W/m/K]	viscosity [mPa·s]
294.82 K	–	–	69.4 ± 1.8
295.01 K	1017 ± 3	–	–
298.1 K	–	0.152 ± 0.003	–
313.05 K	1003 ± 3	–	23.6 ± 0.6
326.1 K	–	0.152 ± 0.003	–
333.1 K	986.4 ± 2.5	–	9.64 ± 0.25
351.1 K	–	0.15 ± 0.003	–
353.1 K	969.9 ± 2.5	–	4.85 ± 0.12
372.15 K	953.5 ± 2.4	–	2.91 ± 0.07
376.2 K	–	0.148 ± 0.003	–
391.5 K	936.4 ± 2.4	–	1.91 ± 0.05
399.4 K	–	0.145 ± 0.003	–
411.35 K	918.7 ± 2.4	–	1.33 ± 0.03
424.9 K	–	0.14 ± 0.003	–
428.2 K	903.3 ± 2.3	–	1.03 ± 0.03
449.6 K	–	0.135 ± 0.003	–

OCCCOCCCO [4-oxa-1,7-heptanediol]
Conditions	mass density [kg/m3]	thermal conductivity [W/m/K]	viscosity [mPa·s]
297.42 K	–	–	81.5 ± 1.8
297.45 K	1020 ± 2	–	–
298.2 K	–	0.156 ± 0.003	–
309.8 K	–	0.157 ± 0.003	–
313.05 K	1008 ± 2	–	–
313.07 K	–	–	29.8 ± 0.7
316.9 K	–	0.156 ± 0.003	–
333.1 K	992.4 ± 2.1	–	11.1 ± 0.2
347.4 K	–	0.156 ± 0.003	–
353.1 K	976.1 ± 2	–	5.24 ± 0.11
363 K	–	0.156 ± 0.003	–
372.25 K	960.3 ± 2	–	3 ± 0.06
377.6 K	–	0.155 ± 0.003	–
391.45 K	943.1 ± 2	–	1.9 ± 0.04
391.6 K	–	0.154 ± 0.003	–
405.7 K	–	0.153 ± 0.003	–
408.35 K	928.1 ± 2	–	1.36 ± 0.03
420.3 K	916.9 ± 2	–	1.1 ± 0.02
420.6 K	–	0.151 ± 0.003	–
428.3 K	909.6 ± 1.9	–	0.97 ± 0.021
435.1 K	–	0.149 ± 0.003	–
